Read-outs that look alike come from different tables or passages of the source.
Experiments:
H3N2 [1] = assay: Influenza inhibition assay (ICC on MDCK cells, pretreatment); type: cell-based; settings: Influenza A virus
HSV-2 [2] = assay: HSV-2 inhibition assay (plaque reduction on Vero cells, pretreatment); type: cell-based, herpes simplex virus type 2; settings: Human alphaherpesvirus 2, Vero, pretreatment condition
[3] = Partition coefficient octanol/water (UV-vis); type: physicochemical
Procedure: UV–vis spectroscopy was employed first to determine the correct dilution of all compounds. The seven compounds in this study were B3C11SO4, B3C11SO3, B3C6SO3, B3C6SO4, C4C11SO4, C4C11SO3, and C4C3SO3. The protocol is the same for all the compounds: in the beginning, all compounds were dissolved in water at a concentration of 1 mg/mL. The solution was put into a quartz cuvette and then into the UV–vis spectrometer, where the absorbance from wavelengths 600 to 190 nm was investigated. All of the samples presented a peak in absorbance around 200 nm. The samples were diluted further until the absorbance peak reached values near 0.90.
A biphasic solution composed of 1.5 mL of a water solution of antiviral +1.5 mL of octanol was thoroughly mixed for 60 min. After the mixing, the two phases were separated by centrifugation for 1 min using a benchtop centrifuge at 5000 rpm. The water phase saturated in octanol and the octanol phase saturated with water were extracted and characterized by UV–vis spectrometry.
The partition coefficient (log P) was then calculated using formula : logP=log(Absorbanceofoctanolphase/Absorbanceofwaterphase) 1

H1N1 clinical = assay: Influenza inhibition assay (ICC on MDCK cells); type: cell-based; settings: Influenza A virus, dose–response
HSV-2 [4] = assay: Growth of viruses in the presence of compounds (posttreatment), HSV-2; type: cell-based, herpes simplex virus type 2; settings: for IC50: Human alphaherpesvirus 2, Vero, posttreatment condition, Vero cells
HSV-2 [5] = assay: HSV-2 virucidal assay; type: cell-based, herpes simplex virus type 2; settings: for inhibition mechanism against HSV-2 (in words): virucidal tests
[6] = CMC assay (conductivity method); type: physicochemical; settings: in water
Procedure: The CMC of antiviral compounds was measured by the conductivity method. Antiviral compounds were diluted into water at different concentrations, and the conductivity (μS/cm) was measured at each concentration with a conductivity meter (Mettler Toledo, Switzerland). The CMC was identified as the point on the conductivity-concentration plot where the slope changed.

Flu B = assay: Influenza inhibition assay (ICC on MDCK cells); type: cell-based; settings: dose–response
H3N2 [7] = assay: microbe, parasite or virus in culture; type: cell-based; settings: Influenza A virus, posttreatment condition, MDCK cells
[8] = target: glycoprotein D (gD) of HSV; assay: Isothermal titration calorimetry with glycoprotein D; type: binding; settings: ITC, 25°C
Procedure: Isothermal titration calorimetry (ITC) experiments were conducted using ITC200 instruments (GE Healthcare, USA) equipped with a 200 μL sample cell and a 40 μL syringe. Thirteen injections were applied. The first data point was excluded. BSA protein and viral protein concentrations in the cell were approximately 50 μM and 1 mg/mL, respectively, and ligand concentrations in the syringe were roughly 2 mM. They were centrifuged at 2000g for 2 min to remove bubbles. The titration was performed at 25 or 37 °C, with data analyzed using MicroCal PEAQ ITC software. Baseline correction was applied, and Nitpic/Sedphat was used for automated integration to ensure precise binding parameter determination.

[9] = tested on: NO production in RAW 264.7 cells; assay: NO production in LPS-stimulated macrophages; type: cell-based; settings: Mus musculus, RAW264.7; RAW 264.7 pretreated 2 h with MEIs, then LPS 1 μg/mL for 24 h
Procedure: To evaluate the anti-inflammatory potential of MEIs, we investigated their ability to reduce the level of NO production in macrophages. RAW 264.7 cells were pretreated with the different concentrations of MEIs for 2 h, followed by stimulation with lipopolysaccharide (LPS) (1 μg/mL) for 24 h to induce inflammation. […] However, cotreatment with MEIs led to a reduction in NO levels, confirming their anti-inflammatory effect.

HSV-2 [10] = assay: HSV-2 inhibition assay (plaque reduction on Vero cells, pretreatment); type: cell-based, herpes simplex virus type 2; settings: for IC50: Human alphaherpesvirus 2, Vero, dose–response, Vero cells
Procedure: The inhibitory effect of compounds on HSV-2 was evaluated by plaque reduction assay. Vero cells were plated 24 h before the experiment in 24-well plates with a seeding density of 10^5 cells/well. Serial dilutions of compounds in DMEM medium (2% FBS, 1% P/S) were prepared, followed by the addition of aliquots of HSV-2 such that the final titer of the virus was 200 pfu/mL (with MOI = 0.0005). Compounds/virus mixtures were incubated at 37 °C for 1 h and added to the cells (250 μL/well). Followed by incubation at 37 °C for 1 h, the viral inoculum was removed. The cells were overlaid with DMEM medium containing 1.2% methylcellulose, 2% FBS, and 1% P/S. After 48 h of incubation at 37 °C, 5% CO2, the cells were fixed and stained with 0.1% crystal violet in 20% ethanol. Finally, the plaques were counted. Each group of experiments in the inhibition assay was performed in triplicate. The concentration producing a 50% reduction in plaque formation was determined using Prism 10 software (GraphPad Software, USA) by comparing compound-treated and untreated cells. Infectivity was calculated as the number of plaques in compound-treated cells/number of plaques in untreated cells × 100%.

[11] = Cytotoxicity assay for MDCK (MTT); type: cell-based; settings: dog, MDCK cells
Procedure: MTT assay was used to evaluate the cytotoxicity on MDCK cells. 10^4 cells per well were seeded in a 96-well plate 1 day before the assay. A dose range of each drug (from 4.11 μM to 1000 μM) was added to the cells in serum-free medium for MDCK cells. The antivirals were incubated on the cells for 24 h at 37 °C. After incubation, the cells were washed, and MTT reagent (Promega) was added to the cells for 4 h at 37 °C according to the manufacturer’s instructions. The cells were then washed, and 50 μL of DMSO was added to free the reagent. Subsequently, the absorbance was read at 579 nm. Percentages of viability were calculated by comparing the absorbance in treated wells and untreated conditions.

[12] = Cytotoxicity assay on Vero cells (MTS); type: cell-based; settings: African green monkey
Procedure: Cytotoxicity assay was performed on the Vero cell line with the MTS assay. The cells were plated for 24 h in DMEM medium containing 10% FBS and 1% penicillin/streptomycin with a seeding density of 2 × 10^4 per well in a 96-well plate. […] Then, the cells were washed with PBS twice, followed by the addition of 20 μL MTS reagents together with 80 μL DMEM medium. They were then incubated at 37 °C for 4 h. The cell viability was checked by absorbance at 490 nm with a plate reader.

[13] = dose–response, read-out: IC50 H3N2
[14] = pretreatment condition, read-out: pretreatment IC50, H3N2
[15] = HSV-2 inhibition, concentration intended to inhibit infection by at least 90 and 99%

SMILES	IC50 (H3N2 [1]; [13])	IC50 (H3N2 [1]; [14])	IC50 (HSV-2 [2])	logP [3]	IC50 (H1N1 clinical)	IC50 (HSV-2 [4])	inhibition mechanism against HSV-2 (in words) (HSV-2 [5])	CMC [6]	IC50 (Flu B)	IC50 (H3N2 [7])	Kd [8]	IC50 [9]	IC99 (HSV-2 [10]; [15])	IC50 (HSV-2 [10])	CC50 at 24 h [11]	CC50 at 48 h [12]	also measured
O=S(=O)(O)CCCCCCCCCCCSCc1cc2c(cc1CSCCCCCCCCCCCS(=O)(=O)O)OCCOCCOc1cc(CSCCCCCCCCCCCS(=O)(=O)O)c(CSCCCCCCCCCCCS(=O)(=O)O)cc1OCCOCCO2 [C4C11SO3]	6.4 ± 1.03 µM	40.9 ± 1.19 µM	9.8 ± 1.5 µM	-2.25	10.4 ± 3.34 µM	12.3 ± 0.76 µM	virucidal	237 ± 17.1 µM	7.7 ± 3.75 µM	52.6 ± 0.5 µM	83.5 µM	173.8 ± 1.52 µM	408 ± 1.5 µM	18.5 ± 5.2 µM	202.3 ± 0.76 µM	> 358 µM	Virucidal/Virustatic, HSV-2 (HSV-2 [5]; concentration 126.3 uM): Virucidal; Virucidal/Virustatic, HSV-2 (HSV-2 [5]; concentration 237.16 uM): Virucidal; Virucidal/Virustatic, HSV-2 (HSV-2 [5]; concentration 304 uM): Virucidal
O=S(=O)(O)CCCCCCCCCCCSCc1cc(CSCCCCCCCCCCCS(=O)(=O)O)cc(CSCCCCCCCCCCCS(=O)(=O)O)c1 [B3C11SO3]	49.5 ± 8.7 µM	49.5 ± 8.7 µM	88.5 ± 7.6 µM	-2.43	4.2 ± 0.36 µM	10.3 ± 1.17 µM	virustatic	497 ± 20.9 µM	324 ± 103 µM	24.8 ± 1.2 µM	23.2 µM	–	–	88.5 ± 7.6 µM	> 415 µM	> 546 µM	fold reduction in IC50, posttreatment vs pretreatment (HSV-2 [4]; HSV-2): approximately 9 fold; Virucidal/Virustatic, HSV-2 (HSV-2 [5]; concentration 300 uM): Virustatic; Virucidal/Virustatic, HSV-2 (HSV-2 [5]; concentration 500 uM): Virustatic; Virucidal activity, HSV-2 (HSV-2 [5]; virucidal titration at 90–99% viral inhibition concentration, Vero cells): S; IC99 (HSV-2 [10]): 1092 ± 7.6 µM
O=S(=O)(O)OCCCCCCCCCCCSCc1cc2c(cc1CSCCCCCCCCCCCOS(=O)(=O)O)OCCOCCOc1cc(CSCCCCCCCCCCCOS(=O)(=O)O)c(CSCCCCCCCCCCCOS(=O)(=O)O)cc1OCCOCCO2 [C4C11SO4]	40.9 ± 1.19 µM	6.4 ± 1.03 µM	18.5 ± 5.2 µM	-1.76	> 202 µM	4.8 ± 0.7 µM	–	1003 ± 24.6 µM	47.9 ± 9.38 µM	18.3 ± 0.75 µM	141 µM	66.1 ± 1.23 µM	67.47 ± 5.2 µM	9.8 ± 1.5 µM	> 194 µM	> 657 µM	–
O=S(=O)(O)OCCCCCCCCCCCSCc1cc(CSCCCCCCCCCCCOS(=O)(=O)O)cc(CSCCCCCCCCCCCOS(=O)(=O)O)c1 [B3C11SO4]	0.6 ± 0.12 µM	0.6 ± 0.12 µM	43 ± 8.3 µM	-2.2	0.7 ± 0.04 µM	18 ± 1.13 µM	virucidal	556 ± 35.1 µM	0.4 ± 0.04 µM	8.6 µM	28.2 µM	152.8 ± 1.27 µM	103.8 ± 8.3 µM	43 ± 8.3 µM	12.2 ± 0.94 µM	313 ± 28.7 µM	–

Reference: PMC12598866, “A Comparative Study of Virucidal and Virustatic Multivalent Entry Inhibitors” (The Journal of Physical Chemistry. B, 2025)
